Assay results from patent publication US7803930B2, “Antisense modulation of apolipoprotein B-expression” (Isis Pharmaceuticals, Inc., priority 2002, dated 2010).
In the oligonucleotide strings, read from the 5' end, every base follows the letter of its sugar. An asterisk marks phosphorothioate; unmarked linkages are phosphodiester. Other units and linkages are bracketed, terminal groups are in braces. A string of capitals states the bases alone. e = 2'-O-(2-methoxyethyl) (MOE); [5mC] = 5-methylcytosine; d = 2'-deoxy (DNA)

Assays:
[1] = Toxicity in C57BL/6 mice, two weeks (Example 48): liver enzyme levels, body, liver and spleen weight; type: in vivo, mouse; parameters: Weight BODY / Weight LIVER / Weight SPLEEN: unit not given here; details: 25 mg/kg i.p. twice a week
Procedure: C57BL/6 mice were divided into two groups—one group receiving oligonucleotide treatment and control animals receiving saline treatment. After overnight fasting, mice were dosed intraperitoneally twice a week with saline or 25 mg/kg of one of several oligonucleotides for two weeks. The antisense oligonucleotides used in the present study were ISIS 233172 (SEQ ID NO: 835) and ISIS 233175 (SEQ ID NO: 838), both targeted to rabbit apolipoprotein B, and ISIS 281625 (SEQ ID NO: 224), ISIS 301012 (SEQ ID NO: 247), and ISIS 301027 (SEQ ID NO: 262), targeted to human apolipoprotein B. At study termination and forty eight hours after the final injections, animals were sacrificed and evaluated for liver enzyme levels, body weight, liver weight, and spleen weight.

lipoprotein(a) = assay: Lipoprotein(a) particle secretion from primary human hepatocytes, ELISA; type: cell-based; details: 24 hours
Procedure: Primary human hepatocytes (InVitro Technologies, Baltimore, Md.), cultured and transfected as described herein, were treated for 24 hours with 50 or 150 nM of ISIS 271009 (SEQ ID NO: 319), 281625 (SEQ ID NO: 224), 301012 (SEQ ID NO: 247) or 301027 (SEQ ID NO: 262). Cells were also treated with 150 nM of the control oligonucleotides ISIS 113529 (SEQ ID NO: 859) or ISIS 13650 (SEQ ID NO: 806). Untreated cells served as a control. Following 24 hours of oligonucleotide treatment, the amount of lipoprotein(a) in the culture medium collected from the treated cells was measured using a commercially available ELISA kit (ALerCHEK Inc., Portland, Me.). The results are the average of three experiments and are expressed as percent change in lipoprotein(a) secretion relative to untreated controls.

apolipoprotein B protein = assay: Apolipoprotein B protein secreted from primary human hepatocytes, ELISA; type: cell-based
Procedure: Oligonucleotides were introduced into cells through LIPOFECTIN-mediated transfection as described by other examples herein. Cells were harvested both 24 and 48 hours after treatment with oligonucleotide, and both RNA and protein were isolated. Additionally, the culture media from treated cells was collected for ELISA analysis of apolipoprotein B protein secretion.
Apolipoprotein secreted from into the cultured cell media was measured in the samples treated with 50 and 150 nM of oligonucleotide, using a target protein specific ELISA kit (ALerCHEK Inc., Portland, Me.). Each result represents 3 experiments.
An additional experiment was performed to test the effects of ISIS 271009 (SEQ ID NO: 319), ISIS 281625 (SEQ ID NO: 224) and ISIS 301027 (SEQ ID NO: 262) on human apolipoprotein B mRNA in human primary hepatocytes. Cells were cultured as described herein and treated with 5, 10, 50 or 150 nM of ISIS 271009, ISIS 281625 or ISIS 301027 for a period of 24 hours. The control oligonucleotides ISIS 13650 (SEQ ID NO: 806) and ISIS 113529 (SEQ ID NO: 859) were used at 50 or 150 nM. Human apolipoprotein B mRNA expression was evaluated by real-time PCR as described by other examples herein. Apolipoprotein B protein secreted into the cultured cell media was measured in the samples treated with 50 and 150 nM of oligonucleotide, using a target protein specific ELISA kit (ALerCHEK Inc., Portland, Me.).

[2] = tested on: endogenous mouse apolipoprotein B; assay: C57BL/6NTac-TgN(APOB100) transgenic mice, 8 weeks (Example 47): endogenous mouse apolipoprotein B mRNA in liver; type: in vivo; details: C57BL/6NTac-TgN(APOB100) mice, 25 mg/kg i.p. twice a week, eight weeks; for levels of the endogenous mouse apolipoprotein B in liver: specificity; for mRNA % control, mouse mRNA: liver
Procedure: (§1) C57BL/6NTac-TgN(APOB100) mice were divided into two groups—one group receiving oligonucleotide treatment and control animals receiving saline treatment. After overnight fasting, mice were dosed intraperitoneally twice a week with saline or 25 mg/kg ISIS 281625 (SEQ ID No: 224) or ISIS 301012 (SEQ ID No: 247) for eight weeks. At study termination and forty eight hours after the final injections, animals were sacrificed and evaluated for target mRNA levels in liver, cholesterol and triglyceride levels, and liver enzyme levels. In addition, the endogenous mouse apolipoprotein B levels in liver were measured to evaluate any effects of these antisense oligonucletides targeted to the human apolipoprotein B.

[3] = C57BL/6NTac-TgN(APOB100) transgenic mice (Example 47): liver enzyme, cholesterol, LDL-cholesterol and triglyceride levels; type: in vivo, mouse; details: C57BL/6NTac-TgN(APOB100) mice, 25 mg/kg i.p. twice a week, eight weeks; for AST and ALT levels: normal levels ~300 IU/L
Procedure: as §1

[4] = 150 nM, 24 hours, "+" = increased

301027 (eG*e[5mC]*eT*e[5mC]*eA*d[5mC]*dT*dG*dT*dA*dT*dG*dG*dT*dT*eT*eT*eA*eT*e[5mC]; antisense) [compound 301027]
Liver Enzymes ALT [1]: 221.3 IU/L | Liver Enzymes AST [1]: 455.3 IU/L | Weight BODY [1]: 21.2 | Weight LIVER [1]: 1.3 | Weight SPLEEN [1]: 0.1 | % Change in lipoprotein(a) secretion (lipoprotein(a); 50 nM): −33% | % Change in lipoprotein(a) secretion (lipoprotein(a); 150 nM): −44%

113529 (antisense e[5mC]*eT*e[5mC]*eT*eT*dA*d[5mC]*dT*dG*dT*dG*d[5mC]*dT*dG*dT*eG*eG*eA*e[5mC]*eA) [compound 113529]
% Change in apolipoprotein B protein secretion (apolipoprotein B protein; 150 nM, 24 hours): +6% | % Change in apolipoprotein B protein secretion (apolipoprotein B protein; 150 nM, 48 hours): +4% | % Change in lipoprotein(a) secretion (lipoprotein(a); 150 nM): +14%

ISIS 281625: SEQ ID NO: 224, 2′-MOE gapmer targeted to human apolipoprotein B (antisense eA*eG*eG*eT*eT*dA*d[5mC]*d[5mC]*dA*dG*d[5mC]*d[5mC]*dA*d[5mC]*dA*eT*eG*e[5mC]*eA*eG)
levels of the endogenous mouse apolipoprotein B in liver [2]: unaffected | Cholesterol levels relative to saline treatment [3]: slightly increased | triglyceride levels relative to saline treatment [3]: slightly decreased | AST and ALT levels [3]: increased, yet did not exceed normal levels | % Inhibition of apolipoprotein B protein secretion (apolipoprotein B protein; 50 nM, 24 hours): 18% | % Inhibition of apolipoprotein B protein secretion (apolipoprotein B protein; [4]): 18%

ISIS 301027: SEQ ID NO: 262, 2′-MOE gapmer targeted to human apolipoprotein B (antisense eG*e[5mC]*eT*e[5mC]*eA*d[5mC]*dT*dG*dT*dA*dT*dG*dG*dT*dT*eT*eT*eA*eT*e[5mC])
levels of liver enzymes relative to saline treatment [1]: drastically increased | % Inhibition of apolipoprotein B protein secretion (apolipoprotein B protein; 50 nM, 24 hours): 21% | % Inhibition of apolipoprotein B protein secretion (apolipoprotein B protein; [4]): 32% | secretion of apolipoprotein B protein from cells (ELISA) (apolipoprotein B protein; 50 and 150 nM): inhibit the secretion of apolipoprotein B protein from cells in a dose-dependent manner

301012 (eG*e[5mC]*e[5mC]*eT*e[5mC]*dA*dG*dT*d[5mC]*dT*dG*d[5mC]*dT*dT*d[5mC]*eG*e[5mC]*eA*e[5mC]*e[5mC]) [compound 301012]
mRNA % control, mouse mRNA [2]: 94.6 % control | Lipoproteins CHOL [3]: 145.1 mg/dL | Lipoproteins HDL [3]: 98.6 mg/dL | Lipoproteins LDL [3]: 36.6 mg/dL | Lipoproteins TRIG [3]: 157.8 mg/dL | Liver Enzymes ALT [3]: 137.4 IU/L | Liver Enzymes AST [3]: 208.4 IU/L | Liver Enzymes ALT [1]: 21.2 IU/L | Liver Enzymes AST [1]: 50.6 IU/L | Weight BODY [1]: 21.3 | Weight LIVER [1]: 1.1 | Weight SPLEEN [1]: 0.1 | % Change in apolipoprotein B protein secretion (apolipoprotein B protein; 150 nM, 24 hours): −57% | % Change in apolipoprotein B protein secretion (apolipoprotein B protein; 150 nM, 48 hours): −75% | % Change in lipoprotein(a) secretion (lipoprotein(a); 50 nM): −27% | % Change in lipoprotein(a) secretion (lipoprotein(a); 150 nM): −37%

271009 (antisense eG*e[5mC]*e[5mC]*eT*e[5mC]*dA*dG*dT*d[5mC]*dT*dG*d[5mC]*dT*dT*d[5mC]*eG*e[5mC]*eG*e[5mC]*e[5mC]) [compound 271009]
% Change in lipoprotein(a) secretion (lipoprotein(a); 50 nM): −25% | % Change in lipoprotein(a) secretion (lipoprotein(a); 150 nM): −42%

ISIS 301012: SEQ ID NO: 247, antisense oligonucleotide targeted to human apolipoprotein B (antisense GCCTCAGTCTGCTTCGCACC; chemistry not given here)
levels of the endogenous mouse apolipoprotein B in liver [2]: unaffected | Cholesterol levels relative to saline treatment [3]: slightly increased | triglyceride levels relative to saline treatment [3]: slightly decreased | AST and ALT levels [3]: increased, yet did not exceed normal levels

281625 (antisense eA*eG*eG*eT*eT*dA*d[5mC]*d[5mC]*dA*dG*d[5mC]*d[5mC]*dA*d[5mC]*dA*eT*eG*e[5mC]*eA*eG) [compound 281625]
mRNA % control, mouse mRNA [2]: 111.0 % control | Lipoproteins CHOL [3]: 152.0 mg/dL | Lipoproteins HDL [3]: 84.6 mg/dL | Lipoproteins LDL [3]: 49.8 mg/dL | Lipoproteins TRIG [3]: 171.1 mg/dL | Liver Enzymes ALT [3]: 363.8 IU/L | Liver Enzymes AST [3]: 265.8 IU/L | Liver Enzymes ALT [1]: 36.2 IU/L | Liver Enzymes AST [1]: 89.5 IU/L | Weight BODY [1]: 20.9 | Weight LIVER [1]: 1.2 | Weight SPLEEN [1]: 0.1 | % Change in lipoprotein(a) secretion (lipoprotein(a); 50 nM): −26% | % Change in lipoprotein(a) secretion (lipoprotein(a); 150 nM): −24%
